Laboratory results: patent US20160022606A1, “NOVEL THERAPY FOR PROSTATE CARCINOMA” (PELLFICURE PHARMACEUTICALS INC., priority 2013, published 2016)

Columns and labels:
TRAMP-C2 cells = experiment: Incidence of MI, AP and PY in TRAMP-C2 cells (H2B-GFP) by fluorescent microscopy; type: cell-based, mouse; details: for AP (×10^−3) / MI (×10^−3) / PY (×10^−3): RPMI without phenol red, no FCS
Excerpt: At each time point, two peripheral and two central ×20 fields of the tumor are captured with a FITC filter and an integrated frame grabber. Only mitotic figures in metaphase-telophase (MI) are included in the mitotic indices to exclude the potential artifact of nuclear membrane distortion. Apoptotic/Pyknotic nuclei are defined as H2B-GFP labeled nuclei with a cross sectional area <30 μm^2. Nuclear karyorrhexis (NK), easily distinguishable by the vesicular nuclear condensation and brightness of H2BGFP, is included within this apoptotic indices.
For example, TRAMP-C2 cells (transfected with H2B-GFP) were plated at 2.08×10^4 cells/cm^2 density in complete RPMI medium (10% of heat-inactivated FCS, 10^−8 M DHT, 5 μg/ml insulin, 6 ng/ml EGF, 100 U/ml penicillin, 100 μg/ml streptomycin, 2 mM L-glutamine) and grown at 37° C. in a humidified 5% CO2 atmosphere overnight. The cells were 3× washed with PBS and medium was replaced for RPMI medium without phenol red and without FCS. One set of cells had no DHT, the other set was incubated in the presence of DHT 10^−8 M overnight. 24 h later, the medium was replaced for medium (RPMI without phenol red, no FCS) containing increasing concentrations of plumbagin in the range 0-1 μM with DHT 10^−8 M or without DHT. 24 h later the incidence of MI, AP, and PY was evaluated by fluorescent microscopy.

[1] = tested on: P388 lymphocytic leukemia; details: in vivo; cited from earlier work
tubulin [2] = details: Acharya et al., Biochemistry 2008; cited from earlier work
tubulin [3] = details: Acharya et al., Biochemistry 2008; cited from earlier work; remark: listed apart in the source
[4] = type: physicochemical
Experimental: Plumbagin was formulated as an inclusion complex with heptakis(2,6-di-O-methyl)-beta-cyclodextrin. In brief, a super-saturated solution of plumbagin in 0.1M of heptakis(2,6-di-O-methyl)-beta-cyclodextrin was stirred for 72 hours at 25+/−0.5° C. Then the mixture was filtered through a 0.2 µm nylon membrane filter. The concentration of solubilized plumbagin has been determined by UV-VIS spectroscopy (Amax(263 nm and 417 nm)).

[5] = tested on: hormone-refractory prostate cancer; details: Aziz et al., Cancer Res. 2008; cited from earlier work
hepatoma = details: in vivo; cited from earlier work
prostate carcinoma cells = details: plumbagin 5 umol/L; cited from earlier work
fibrosarcomas = details: in vivo; cited from earlier work

With C[C@]12CCC(=O)C[C@@H]1CC[C@@H]1[C@@H]2CC[C@]2(C)[C@@H](O)CC[C@@H]12 [DHT, dihydrotestosterone, reference compound] as the compound, how does the “AP (×10^−3)” value (TRAMP-C2 cells; DHT 0.01 μM) read?
Its value is 13.8 ×10^−3.

What about the “MI (×10^−3)” value (TRAMP-C2 cells; DHT 0.01 μM) of the same compound?
The value was 4.911 ×10^−3.

And the “PY (×10^−3)” value (TRAMP-C2 cells; DHT 0.01 μM)?
Its value is 0.8681 ×10^−3.

For CC1=CC(=O)c2c(O)cccc2C1=O [Plumbagin, 5-hydroxy-2-methylnaphthalene-1,4-dione], which “ED50 anticancer effect toward P388 lymphocytic leukemia” value [1] is on record?
The value was 4 mg/kg body weight.

And the “in vitro tubulin polymerization” value (tubulin [2])?
Its value is “inhibits in vitro tubulin polymerization”.

And the tubulin binding site (tubulin [3])?
Its tubulin binding site is “recognizes the colchicine binding site of tubulin”.

What about the “K1:1 (phase-solubility diagram analysis)” value [4] of the same compound?
The value was 485 M⁻¹.

What about the “effect on hormone-refractory prostate cancer” value [5] of the same compound?
Its value is “inhibited growth and invasion of hormone-refractory prostate cancer”.

And the effect on hepatoma (hepatoma)?
Its effect on hepatoma is “induced regression of hepatoma”.

What about the “expression of PKCq, PI3K, AKT, activation of AP-1, NF-κB, Stat3” value (prostate carcinoma cells) of the same compound?
The value was “inhibit expression of multiple molecular targets”.

And the “ED50 anticancer effect toward fibrosarcomas” value (fibrosarcomas)?
Its value is 0.75 mg/kg body weight.

What about the “induction of cell cycle entry / mitosis compared with DHT” value (TRAMP-C2 cells; 0.6 μM of plumbagin vs DHT at 10^−8 M) of the same compound?
The value was “much more effectively than DHT at 10^−8 M”.

What about the “AP (×10^−3)” value (TRAMP-C2 cells; plumbagin 0.4 μM, 24 h) of the same compound?
Its value is 8.852 ×10^−3.

And the “MI (×10^−3)” value (TRAMP-C2 cells; plumbagin 0.4 μM, 24 h)?
Its value is 8.89 ×10^−3.

And the “PY (×10^−3)” value (TRAMP-C2 cells; plumbagin 0.4 μM, 24 h)?
The value was 20.495 ×10^−3.

And the “AP (×10^−3)” value (TRAMP-C2 cells; plumbagin 0.6 μM, 24 h)?
The value was 9.371 ×10^−3.

And the “MI (×10^−3)” value (TRAMP-C2 cells; plumbagin 0.6 μM, 24 h)?
The value was 14.81 ×10^−3.

What about the “PY (×10^−3)” value (TRAMP-C2 cells; plumbagin 0.6 μM, 24 h) of the same compound?
The value was 16.76 ×10^−3.

And the “AP (×10^−3)” value (TRAMP-C2 cells; plumbagin 0.8 μM, 24 h)?
Its value is 16.11 ×10^−3.

What about the “MI (×10^−3)” value (TRAMP-C2 cells; plumbagin 0.8 μM, 24 h) of the same compound?
Its value is 12.7 ×10^−3.

What about the “PY (×10^−3)” value (TRAMP-C2 cells; plumbagin 0.8 μM, 24 h) of the same compound?
Its value is 16.73 ×10^−3.

And the “AP (×10^−3)” value (TRAMP-C2 cells; plumbagin 1 μM, 24 h)?
The value was 14.22 ×10^−3.

What about the “MI (×10^−3)” value (TRAMP-C2 cells; plumbagin 1 μM, 24 h) of the same compound?
The value was 7.285 ×10^−3.

And the “PY (×10^−3)” value (TRAMP-C2 cells; plumbagin 1 μM, 24 h)?
The value was 8.244 ×10^−3.
